The values that follow come from US20130323284A1, “USE OF mTOR INHIBITORS TO TREAT BACTERIAL INFECTION” (JAZZYA INVESTMENTS, priority 2012, published 2013).

The test system of the experiment is CYLD. The experiment in a line: Immunoblot analysis of CYLD levels in Klebsiella pneumoniae infected cells. The following applies: U0126 10 mM; infected for 3 h; versus vehicle control. In kind it is cell-based. As to the method: An immunoblot analysis of CYLD levels in Klebsiella pneumoniae infected cells for 3 h in the presence of vehicle control (Kp) or PI3K inhibitor (LY294002, […]), AKT inhibitor ([…]), ERK inhibitor (U0126, […]) is shown. Membranes were reprobed for tubulin as a loading control.

Turning to `N#CC(=C(/N)Sc1ccccc1N)/C(C#N)=C(\N)Sc1ccccc1N` [U0126], the “Klebsiella pneumoniae induced production of CYLD in the presence of inhibitor” value is on record as “PI3K-AKT-ERK dependent manner”.
